The target of this assay is recombinant human AMPK complex 1 (containing α1β1γ1) (Homo sapiens, UniProt Q13131+Q9Y478). Nature of the assay: […] (in vitro AMPK activation assay). It counts as biochemical. The following applies: recombinant human AMPK complex 1 (α1β1γ1); basal activity subtracted; read-out: % Maximum AMP Activation of human AMPK Complex 1. The procedure: Recombinant viruses were generated by cotransfection of AMPK/pBacPak9 clones with Baculogold baculovirus DNA (Pharmingen) in spodoptera frugiperda 21 cells according to the manufacturer's instructions. Each round of virus amplification was performed for 5 days in Grace's medium containing 10% serum. Virus that had been subjected to three rounds of amplification was used for all protein production procedures. To express the AMPK complex, sf21 cells were adapted to serum free medium (SF900 II, Invitrogen) by sequential dilution from serum containing stocks into SF900 II medium and maintained in shaker flasks at 90 rpm at 27° C. The recombinant AMPK enzyme complex was produced by triple infection, one recombinant virus for each of the subunits, in sf21 cells under serum free conditions. […] Cells were harvested by centrifugation at 10,000×g for 15 minutes after 72 hours of infection with viruses. The insect cell pellet from 2 liters of culture was resuspended in 50 ml lysis buffer (20 mM Tris-HCl, 50 mM NaCl, 50 mM NaF, 30 mM Na PPi, 0.25 M sucrose, 10 mM ZnCl2, 2 mM DTT, 0.4 mg/ml digitonin) and subjected to two cycles of freeze-thaw lysis in a dry-ice ethanol bath. Insoluble material was removed by centrifugation at 10,000×g and the supernatant was fractionated with use of polyethylene glycol (PEG).
The total in vitro AMPK activation assay volume is 50 μl in a 96-well plate. […] The reaction was initiated with addition of the enzyme. After 30-minute incubation at 30° C., the reaction was stopped by addition of 80 μl 1% H3PO4. Aliquots (100 μl) were transferred to 96-well MultiScreen plates (MAPHNOB50; Millipore Corp., Bedford, Mass., USA). The plate was washed three times with 1% H3PO4 followed by detection in a Top-count. The counts per minute from the basal activity (the reaction without activator) was subtracted from each well and the data were expressed as % maximum AMP activation followed by EC50 calculation.

Sequence of recombinant human AMPK complex 1 (containing α1β1γ1) (Q13131 whole entry): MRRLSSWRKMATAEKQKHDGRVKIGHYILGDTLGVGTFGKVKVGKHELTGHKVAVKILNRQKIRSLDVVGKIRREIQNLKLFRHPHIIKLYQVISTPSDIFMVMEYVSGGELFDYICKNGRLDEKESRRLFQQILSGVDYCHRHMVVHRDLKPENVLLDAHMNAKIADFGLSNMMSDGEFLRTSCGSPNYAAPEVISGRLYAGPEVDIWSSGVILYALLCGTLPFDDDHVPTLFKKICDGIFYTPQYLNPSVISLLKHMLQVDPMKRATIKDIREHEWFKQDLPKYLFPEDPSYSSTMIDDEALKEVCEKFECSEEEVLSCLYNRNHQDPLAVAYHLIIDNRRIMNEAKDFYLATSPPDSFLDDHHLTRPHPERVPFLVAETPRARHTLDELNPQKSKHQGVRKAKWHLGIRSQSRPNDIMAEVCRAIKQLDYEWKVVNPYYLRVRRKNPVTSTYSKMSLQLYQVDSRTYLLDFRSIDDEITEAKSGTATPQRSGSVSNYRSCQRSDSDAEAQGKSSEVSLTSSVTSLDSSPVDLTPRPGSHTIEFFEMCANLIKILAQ
Sequence of recombinant human AMPK complex 1 (containing α1β1γ1) (Q9Y478 whole entry): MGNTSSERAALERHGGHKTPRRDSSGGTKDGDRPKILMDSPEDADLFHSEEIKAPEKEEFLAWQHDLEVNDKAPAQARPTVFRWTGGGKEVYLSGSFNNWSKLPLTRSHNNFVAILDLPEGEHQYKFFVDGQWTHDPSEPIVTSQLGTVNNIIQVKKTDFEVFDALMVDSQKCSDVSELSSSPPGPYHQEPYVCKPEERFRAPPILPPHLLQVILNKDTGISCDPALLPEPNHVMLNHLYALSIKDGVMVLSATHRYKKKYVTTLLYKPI
Sequence of recombinant human AMPK complex 1 (containing α1β1γ1) (P54619 whole entry partner): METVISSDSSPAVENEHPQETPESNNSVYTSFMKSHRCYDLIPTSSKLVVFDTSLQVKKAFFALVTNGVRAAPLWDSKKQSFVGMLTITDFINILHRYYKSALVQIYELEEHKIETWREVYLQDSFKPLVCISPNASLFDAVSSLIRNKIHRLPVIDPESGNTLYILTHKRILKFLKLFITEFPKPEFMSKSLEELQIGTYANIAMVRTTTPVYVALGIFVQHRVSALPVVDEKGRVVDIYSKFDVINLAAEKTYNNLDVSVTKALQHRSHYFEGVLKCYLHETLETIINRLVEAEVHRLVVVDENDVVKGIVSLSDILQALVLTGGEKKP

Take `Cc1ccc(Oc2nc3cc(C#Cc4ccc(-n5cccn5)cc4)c(Cl)cc3[nH]2)cc1C(=O)O` [Example 71, 5-[6-Chloro-5-(4-pyrazol-1-yl-phenylethynyl)-1H-benzoimidazol-2-yloxy]-2-methyl-benzoic acid]: the Emax was > 80%.
As to `Cc1ccc(Oc2nc3cc(C#Cc4ccc(CN)cc4)c(Cl)cc3[nH]2)cc1C(=O)O` [Example 72, 5-[5-(4-Aminomethyl-phenylethynyl)-6-chloro-1H-benzimidazol-2-yloxy]-2-methyl-benzoic acid], the Emax is > 80%.
As for `Cc1ccc(Oc2nc3cc(C#Cc4ccc(-c5ncc[nH]5)cc4)c(Cl)cc3[nH]2)cc1C(=O)O` [Example 73, 5-{6-Chloro-5-[4-(1H-imidazol-2-yl)-phenylethynyl]1H-benzoimidazol-2-yloxy}-2-methyl-benzoic acid], the figure is > 80%.
In the case of `Cc1ccc(Oc2nc3cc(C#Cc4ccc(-c5cc[nH]n5)cc4)c(Cl)cc3[nH]2)cc1C(=O)O` [Example 74, 5-{6-Chloro-5-[4-(1H-pyrazol-3-yl)-phenylethynyl]-1H-benzoimidazol-2-yloxy}-2-methyl-benzoic acid], the Emax was > 80%.
In the case of `Cc1ccc(Oc2nc3cc(C#Cc4ccc(-c5cnc[nH]5)cc4)c(Cl)cc3[nH]2)cc1C(=O)O` [Example 75, 5-{6-Chloro-5-[4-(3H-imidazol-4-yl)-phenylethynyl]-1H-benzoimidazol-2-yloxy}-2-methyl-benzoic acid] it was > 80%; in that of `Cc1ccc(Oc2nc3cc(C#Cc4ccc(F)cc4F)c(Cl)cc3[nH]2)cc1C(=O)O` [Example 76, 5-[6-Chloro-5-(2,4-difluoro-phenylethynyl)-1H-benzoimidazol-2-yloxy]-2-methyl-benzoic acid], > 80%; in that of `Cc1ccc(Oc2nc3cc(C#Cc4ccc(-c5nnc(O)[nH]5)cc4)c(Cl)cc3[nH]2)cc1C(=O)O` [Example 77, 5-{6-Chloro-5-[4-(5-hydroxy-4H-[1,2,4]triazol-3-yl)-phenylethynyl]-1H-benzoimidazol-2-yloxy}-2-methyl-benzoic acid], > 80%.
With `Cc1ccc(Oc2nc3cc(C#Cc4ccc(-c5nc[nH]n5)cc4)c(Cl)cc3[nH]2)cc1C(=O)O` [Example 78, 5-{6-Chloro-5-[4-(1H-[1,2,4]triazol-3-yl)-phenylethynyl]-1H-benzoimidazol-2-yloxy}-2-methyl-benzoic acid], the Emax was > 80%.
Consider `Cc1ccc(Oc2nc3cc(C#Cc4ccc(-c5nn[nH]n5)cc4)c(Cl)cc3[nH]2)cc1C(=O)O` [Example 79, 5-{6-Chloro-5-[4-(2H-tetrazol-5-yl)-phenylethynyl]-1H-benzimidazol-2-yloxy}-2-methyl-benzoic acid], for which the Emax is > 80%.
As for `Cc1nc(-c2ccc(C#Cc3cc4nc(Oc5ccc(C)c(C(=O)O)c5)[nH]c4cc3Cl)cc2)no1` [Example 80, 5-{6-Chloro-5-[4-(5-methyl-[1,2,4]oxadiazol-3-yl)-phenylethynyl]-1H-benzoicmidazol-2-yloxy}-2-methyl-benzoic acid], the figure is > 80%.
In the case of `Cc1ccc(Oc2nc3cc(C#Cc4ccc(-c5nc6ccccc6o5)cc4)c(Cl)cc3[nH]2)cc1C(=O)O` [Example 81, 5-[5-(4-Benzooxazol-2-yl-phenylethynyl)-6-chloro-1H-benzoimidazol-2-yloxy]-2-methyl-benzoic acid] it was > 80%; in that of `Cc1ccc(Oc2nc3cc(C#Cc4ccc(-c5cn[nH]c5)cc4)c(Cl)cc3[nH]2)cc1C(=O)O` [Example 82, 5-{6-Chloro-5-[4-(1H-pyrazol-4-yl)-phenylethynyl]-1H-benzoimidazol-2-yloxy}-2-methyl-benzoic acid], > 80%; in that of `Cc1ccc(Oc2nc3cc(C#Cc4ccc(-c5cscn5)cc4)c(Cl)cc3[nH]2)cc1C(=O)O` [Example 83, 5-[6-Chloro-5-(4-thiazol-4-yl-phenylethynyl)-1H-benzoimidazol-2-yloxy]-2-methyl-benzoic acid], > 80%.
In the case of `Cc1ccc(Oc2nc3cc(C#Cc4ccc(-c5nccs5)cc4)c(Cl)cc3[nH]2)cc1C(=O)O` [Example 84, 5-[6-Chloro-5-(4-thiazol-2-yl-phenylethynyl)-1H-benzoimidazol-2-yloxy]-2-methyl-benzoic acid] it was > 80%; in that of `Cc1ccc(Oc2nc3cc(C#Cc4ccc(-c5csnn5)cc4)c(Cl)cc3[nH]2)cc1C(=O)O` [Example 85, 5-[6-Chloro-5-(4-[1,2,3]thiadiazol-4-yl-phenylethynyl)-1H-benzoimidazol-2-yloxy]-2-methyl-benzoic acid], > 80%.
In the case of `Cc1ccc(Oc2nc3cc(C#Cc4ccc(-n5ccnc5)cc4)c(Cl)cc3[nH]2)cc1C(=O)O` [Example 86, 5-[6-Chloro-5-(4-imidazol-1-yl-phenylethynyl)-1H-benzoimidazol-2-yloxy]-2-methyl-benzoic acid], the Emax was > 80%.
In the case of `Cc1ccc(Oc2nc3cc(C#Cc4ccncc4)c(Cl)cc3[nH]2)cc1C(=O)O` [Example 87, 5-(6-Chloro-5-pyridin-4-ylethynyl-1H-benzoimidazol-2-yloxy)-2-methyl-benzoic acid], the Emax is > 80%.
`Cc1ccc(Oc2nc3cc(C#Cc4ccc(C(O)C5CC5)cc4)c(Cl)cc3[nH]2)cc1C(=O)O` (stereo not drawn) [Example 88, 5-{6-Chloro-5-[4-(cyclopropyl-hydroxy-methyl)-phenylethynyl]-1H-benzoimidazol-2-yloxy}-2-methyl-benzoic acid]: the Emax is > 80%.
As for `Cc1ccc(Oc2nc3cc(C#Cc4ccc(C5(O)CC5)cc4)c(Cl)cc3[nH]2)cc1C(=O)O` [Example 89, 5-{6-Chloro-5-[4-(1-hydroxy-cyclopropyl)-phenylethynyl]-1H-benzoimidazol-2-yloxy}-2-methyl-benzoic acid], the figure is > 80%.
As for `Cc1ccc(Oc2nc3cc(C#Cc4ccc(-c5ccccn5)cc4)c(Cl)cc3[nH]2)cc1C(=O)O` [Example 90, 5-[6-Chloro-5-(4-pyridin-2-yl-phenylethynyl)-1H-benzoimidazol-2-yloxy]-2-methyl-benzoic acid], the figure is > 80%; as for `COC(=O)c1ccc(C#Cc2cc3nc(Oc4ccc(C)c(C(=O)O)c4)[nH]c3cc2Cl)cc1` [Example 91, 5-[6-Chloro-5-(4-methoxycarbonyl-phenylethynyl)-1H-benzoimidazol-2-yloxy]-2-methyl-benzoic acid], > 80%; as for `Cc1ccc(Oc2nc3cc(C#Cc4ccc(C#N)cc4)c(Cl)cc3[nH]2)cc1C(=O)O` [Example 92, 5-[6-Chloro-5-(4-cyano-phenylethynyl)-1H-benzoimidazol-2-yloxy]-2-methyl-benzoic acid], > 80%.
In the case of `Cc1ccc(Oc2nc3cc(C#Cc4ccc(C(F)(F)F)cc4)c(Cl)cc3[nH]2)cc1C(=O)O` [Example 93, 5-[6-Chloro-5-(4-trifluoromethyl-phenylethynyl)-1H-benzoimidazol-2-yloxy]-2-methyl benzoic acid] it was > 80%; in that of `COc1ccc2cc(C#Cc3cc4nc(Oc5ccc(C)c(C(=O)O)c5)[nH]c4cc3Cl)ccc2c1` [Example 94, 5-[6-Chloro-5-(6-methoxy-naphthalen-2-ylethynyl)-1H-benzoimidazol-2-yloxy]-2-methyl-benzoic acid], > 80%; in that of `Cc1ccc(Oc2nc3cc(C#Cc4ccc(OC(F)(F)F)cc4)c(Cl)cc3[nH]2)cc1C(=O)O` [Example 95, 5-[6-Chloro-5-(4-trifluoromethoxy-phenylethynyl)-1H-benzoimidazol-2-yloxy]-2-methyl-benzoic acid], > 80%.
Regarding `Cc1ccccc1C#Cc1cc2nc(Oc3ccc(C)c(C(=O)O)c3)[nH]c2cc1Cl` [Example 96, 5-(6-Chloro-5-o-tolylethynyl-1H-benzoimidazol-2-yloxy)-2-methyl-benzoic acid], the Emax was > 80%.
In the case of `Cc1cccc(C#Cc2cc3nc(Oc4ccc(C)c(C(=O)O)c4)[nH]c3cc2Cl)c1` [Example 97, 5-(6-Chloro-5-m-tolylethynyl-1H-benzoimidazol-2-yloxy)-2-methyl-benzoic acid] it was > 80%.
Regarding `COC(=O)c1cc(Oc2nc3cc(C#Cc4ccc(OC(F)(F)F)cc4)c(Cl)cc3[nH]2)ccc1C` [Example 98, 5-[6-Chloro-5-(4-trifluoromethoxy-phenylethynyl)-1H-benzoimidazol-2-yloxy]-2-methyl-benzoic acid methyl ester], the Emax was > 80%.
As to `COC(=O)c1cc(Oc2nc3cc(C#Cc4ccccc4C)c(Cl)cc3[nH]2)ccc1C` [Example 99, 5-(6-Chloro-5-o-tolylethynyl-1H-benzoimidazol-2-yloxy)-2-methyl-benzoic acid methyl ester], the Emax is > 80%.
Consider `COC(=O)c1cc(Oc2nc3cc(C#Cc4cccc(C)c4)c(Cl)cc3[nH]2)ccc1C` [Example 100, 5-(6-Chloro-5-m-tolylethynyl-1H-benzoimidazol-2-yloxy)-2-methyl-benzoic acid methyl ester], for which the Emax is > 80%.

(Values after patent US8394969B2, “Cyclic benzimidazole derivatives useful as anti-diabetic agents” (Merck Sharp & Dohme Corp., priority 2008, dated 2013).)
